# Test results published in paper PMC12432858, “Longitudinal imaging of therapeutic enzyme expression after gene therapy for Fabry disease using positron emission tomography and the radiotracer [^18F]AGAL” (Molecular Therapy, 2024).
# Target: T1, human α-galactosidase A (GLA; α-Gal A) (Homo sapiens, UniProt P06280)
# T1 construct: heart tissue cryosections; no tag stated
# T1 sequence (P06280 32-429): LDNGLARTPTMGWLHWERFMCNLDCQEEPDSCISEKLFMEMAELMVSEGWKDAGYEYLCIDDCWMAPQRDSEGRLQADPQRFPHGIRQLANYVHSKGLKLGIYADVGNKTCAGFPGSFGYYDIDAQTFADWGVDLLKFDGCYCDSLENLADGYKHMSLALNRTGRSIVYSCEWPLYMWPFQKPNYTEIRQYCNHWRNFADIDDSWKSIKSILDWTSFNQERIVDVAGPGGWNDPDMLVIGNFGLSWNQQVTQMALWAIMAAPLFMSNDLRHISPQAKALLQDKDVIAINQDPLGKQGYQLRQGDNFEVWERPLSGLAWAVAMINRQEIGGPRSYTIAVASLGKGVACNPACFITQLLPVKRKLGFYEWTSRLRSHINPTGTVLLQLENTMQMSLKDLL
# Experiment: saturation autoradiography on heart sections, one-site specific binding fit
# Conditions: pH 5.0 McIlvaine buffer, 23 °C, 60 min; nonspecific binding defined with [19F]AGAL; active site; covalent (proposed); labelled compound; GLA in tissue sections of AAVGLA-treated Gla knockout mice
smiles,measurement,value
O=C(CCCCCCCn1cc(CCCF)nn1)N1C2C(O)C(O)C(O)C(CO)C21 (stereo not shown) [[^18F]AGAL],Kd,~20 nM
